The source of these data is ChEMBL document CHEMBL3734654, “Mutational mapping of the transmembrane binding site of the G-protein coupled receptor TGR5 and binding mode prediction of TGR5 agonists” (Eur J Med Chem, 2015).

In this test the test system is T1, G-protein coupled bile acid receptor 1 (Homo sapiens), Q8TDU6 [E169A].
T1 sequence (whole entry): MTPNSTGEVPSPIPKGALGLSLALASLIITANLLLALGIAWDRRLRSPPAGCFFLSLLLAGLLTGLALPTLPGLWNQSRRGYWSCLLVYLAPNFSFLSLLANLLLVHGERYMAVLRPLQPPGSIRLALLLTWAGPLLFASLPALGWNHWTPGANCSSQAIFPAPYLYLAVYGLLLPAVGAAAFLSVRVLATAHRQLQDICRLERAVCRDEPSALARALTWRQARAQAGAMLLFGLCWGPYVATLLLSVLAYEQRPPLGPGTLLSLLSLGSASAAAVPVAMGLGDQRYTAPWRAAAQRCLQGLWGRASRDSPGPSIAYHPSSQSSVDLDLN
The test is described as follows: Agonist activity at human TGR5 E169A mutant expressed in HEK293 cells assessed as rise in intracellular cAMP level at 10 uM incubated for 16 hrs by luciferase reporter assay relative to wild type. It counts as functional, cell-based. (Changes in cAMP serve as a functional read-out for many G protein-coupled receptors.)

Calls of active or inactive are those of the source. No cut-off for these calls is given here.

As for `C=C[C@@]1(C)CC(=O)[C@]2(O)[C@@]3(C)[C@@H](O)CCC(C)(C)[C@@H]3[C@H](O)[C@H](OC(C)=O)[C@@]2(C)O1`, the result was Active.
